The record followed here is the Deep4Chem optical property database.

A short description of this data set: photoluminescence quantum yield (fraction); solvent given as SMILES.
[1] abbreviates: in c1cc(-c2cccc(-n3c4ccccc4c4ccccc43)c2)cc(-n2c3ccccc3c3ccccc32)c1.

`C[n+]1ccn(CCCCc2ccc3c(c2)c2ccccc2n3-c2cc(C#N)c(C#N)cc2-n2c3ccccc3c3cc(CCCCn4cc[n+](C)c4)ccc32)c1` yielded a photoluminescence quantum yield (in CC#N) of 0.026.

`Cc1ccc(/C=C/C(F)(F)F)c(N)c1` had a photoluminescence quantum yield (in C1CCOC1) of 0.62.

Turning to `CN(C)c1cccc2c1-c1ccccc1C2=O`, the photoluminescence quantum yield by setting is: (in C1CCCCC1) 0.075; (in CC#N) 0.0075; (in CCO) 0.00027; (in c1ccccc1) 0.073.

`c1ccccc1` registered a photoluminescence quantum yield (in C1CCCCC1) of 0.14.

In turn, `Brc1ccc2[nH]c(-c3ccc(-c4ccc(-c5ccc(-c6nc7cc(Br)ccc7[nH]6)cc5)cc4)cc3)nc2c1` gave a photoluminescence quantum yield (in CN(C)C=O) of 0.42.

In turn, `CCCC(=O)c1c(OCOC)c(OCOC)c(C(=O)CCC)c2c1OCO2` came in with a photoluminescence quantum yield (in CC#N) of 0.41.

For `O=C1c2ccccc2-c2c(-c3cc(Cl)ccc3O)[nH]c(=O)n21`, the photoluminescence quantum yield (in CC#N) turned out to be 0.61, the photoluminescence quantum yield (in CO) is 0.28 and the photoluminescence quantum yield (in ClCCl) is 0.78.

As for `CCCCC1(CCCC)c2cc(C#Cc3ccc(C=C4c5ccccc5CCc5ccccc54)cc3)ccc2-c2ccc(C#Cc3ccc(C=C4c5ccccc5CCc5ccccc54)cc3)cc21`, the photoluminescence quantum yield (in C1CCOC1) was 0.027.

In the case of `CCCCCCN1C(=O)c2cccc3c(-c4ccc(-c5cc(-c6ccc(OC)cc6)n(-c6ccccc6)n5)s4)ccc(c23)C1=O`, under “in ClCCl”, the photoluminescence quantum yield turned out to be 0.38.

In the case of `CN(C)c1ccc2cc3ccc(=[N+](C)C)cc-3oc2c1`, the photoluminescence quantum yield is, setting by setting: (in CCO) 0.48; (in O) 0.38.

As for `CCN(CC)c1ccc2cc(C#N)/c(=N\C(C)=O)oc2c1`, the photoluminescence quantum yield runs as follows: (in CCO) 0.15; (in ClCCl) 0.8.

The molecule `CCCCCCN1C(=O)c2cccc3c(-c4ccc(-c5cc(-c6ccc(Cl)cc6)n(-c6ccccc6)n5)s4)ccc(c23)C1=O` had a photoluminescence quantum yield (in ClCCl) of 0.33.

In the case of `CC(=O)[B-]1(C(C)=O)OC(c2ccccc2)=CC(c2ccccc2)=[O+]1`, the photoluminescence quantum yield reads like this: (in CC#N) 0.8; (in ClC(Cl)(Cl)Cl) 0.9.

Consider `N#CC1=CC(/C=C/c2ccccc2)=CC(C#N)=P1(c1ccccc1)c1ccccc1`, for which the photoluminescence quantum yield (in ClC(Cl)Cl) was determined as 0.13.

`N#Cc1c(-n2c3ccccc3c3ccccc32)c(-n2c3ccc(-c4ccccc4)cc3c3cc(-c4ccccc4)ccc32)c(-n2c3ccccc3c3ccccc32)c(-n2c3ccc(-c4ccccc4)cc3c3cc(-c4ccccc4)ccc32)c1-n1c2ccccc2c2ccccc21`: the photoluminescence quantum yield came to 0.81 (in Cc1ccccc1) and 0.8 under setting [1].

For `CCOC(=O)CN1C(=O)C2=C(c3ccc(C#N)cc3)N(CC(=O)OCC)C(=O)C2=C1c1ccccc1`, the photoluminescence quantum yield (in CC#N) came to 0.75, the photoluminescence quantum yield (in CS(C)=O) is 0.51 and the photoluminescence quantum yield (in Cc1ccccc1) came out at 0.43.

Consider `CCCCCOc1ccc2c(c1)c1ccc3cccc4c5cccc6oc(=O)c2c(c65)c1c34`, for which the photoluminescence quantum yield (in C1CCOC1) worked out at 0.529.

The molecule `C[SiH]1c2ccccc2-c2cc3c(cc21)-c1ccccc1[SiH]3C` (stereo unspecified) yielded a photoluminescence quantum yield (in ClCCl) of 0.5.

Consider `O=S(=O)([O-])c1ccccc1/C=C/c1ccc(-c2nnc(-c3ccc(/C=C/c4ccccc4S(=O)(=O)[O-])cc3)o2)cc1`, for which the photoluminescence quantum yield (in C1CCOC1) is 0.22, the photoluminescence quantum yield (in CC(C)=O) is 0.17 and the photoluminescence quantum yield (in CN(C)C=O) was determined as 0.75.

`C(#Cc1cccc2cc(-c3ccccc3)c3cc(-c4cc[b-]5c(c4)c(-c4ccccc4)cc4cccc(C#Cc6ccccc6)[n+]54)cc[b-]3[n+]12)c1ccccc1` displayed a photoluminescence quantum yield (in C1CCCCC1) of 0.02.

On to `CCN1c2ccc(C3=CC(c4ccccc4)=[O+][B-](F)(F)O3)cc2Sc2cc(C3=CC(c4ccccc4)=[O+][B-](F)(F)O3)ccc21`, for which the photoluminescence quantum yield (in ClCCl) is 0.46.

Regarding `COc1ccc2cc(C#CC3=C4CCc5ccccc5C4=[O+][B-](F)(F)O3)ccc2c1`, the photoluminescence quantum yield (in ClCCl) is 0.16.

Regarding `O=C1C2=C(O[B-](F)(F)[n+]3c2ccc2ccccc23)c2cccc3c(N4CCOCC4)ccc1c23`, the photoluminescence quantum yield is, setting by setting: (in C1CCOC1) 0.53; (in CC#N) 0.47; (in CCO) 0.45; (in CO) 0.44; (in ClCCl) 0.5.

With `COc1c2ccccc2c(OC)c2c1c1ccc(C(F)(F)F)cc1n2C`, the photoluminescence quantum yield stood at 0.35 (in C1CCCCC1), 0.39 (in CC#N), 0.26 (in CO) and 0.36 (in ClCCl).

For `CC1=C(C#Cc2ccc([Si](c3ccccc3)(c3ccccc3)c3ccccc3)cc2)C(C)=[N+]2C1=C(c1ccccc1)c1c(C)c(C#Cc3ccc([Si](c4ccccc4)(c4ccccc4)c4ccccc4)cc3)c(C)n1[B-]2(F)F`, the photoluminescence quantum yield (in ClCCl) amounted to 0.15.

As to `C(=C\c1cc(-c2ccc3ccccc3c2)c(/C=C/c2ccc(N(c3ccccc3)c3ccccc3)cc2)cc1-c1ccc2ccccc2c1)/c1ccc(N(c2ccccc2)c2ccccc2)cc1`, for the setting “in ClCCl”, the photoluminescence quantum yield came to 0.59.

Consider `O=c1oc2ccccc2c2cc(N3c4ccccc4Oc4ccccc43)ccc12`, for which, under setting [1], the photoluminescence quantum yield came to 0.52.

`COC(=O)c1cc2c(cc3ccc4cccc5ccc2c3c45)[nH]1`: for the setting “in C1CCOC1”, the photoluminescence quantum yield amounted to 0.82.

As for `CC1=[N+]2C(=Cc3cccn3[B-]2(F)F)C=C1`, the photoluminescence quantum yield reads like this: (in CCCCCC) 0.96; (in CO) 1; (in ClCCl) 0.92.

For the molecule `CN(C)CCN(Cc1c2ccccc2cc2ccccc12)c1ccc([N+](=O)[O-])cn1`, the photoluminescence quantum yield (in C1CCCCC1) is 0.0003; the photoluminescence quantum yield (in C1CCOC1) is 0.0009; the photoluminescence quantum yield (in CC#N) worked out at 0.0383; the photoluminescence quantum yield (in CC(C)=O) is 0.00324; the photoluminescence quantum yield (in CCO) was 0.0115; the photoluminescence quantum yield (in CN(C)C=O) was determined as 0.0398. Further, the photoluminescence quantum yield (in CO) came to 0.00453 and the photoluminescence quantum yield (in ClC(Cl)Cl) was 0.005.

In the case of `COc1ccc(-c2cc(B(c3c(C)cc(C)cc3C)c3c(C)cc(C)cc3C)c(-c3sc(-c4ccc(OC)cc4)cc3P(=O)(c3ccccc3)c3ccccc3)s2)cc1`, for the setting “in CO”, the photoluminescence quantum yield amounted to 0.55.

As to `c1ccc(N(c2ccccc2)c2ccc(-c3ccc4c(c3)C3(c5ccccc5Sc5ccccc53)c3cc(-c5ccc(N(c6ccccc6)c6ccccc6)cc5)ccc3-4)cc2)cc1`, the photoluminescence quantum yield by setting is: (in ClCCl) 0.81; (in c1cc(-n2c3ccccc3c3ccccc32)cc(-n2c3ccccc3c3ccccc32)c1) 0.88.

The molecule `COc1cc2cc(OC)c(C#Cc3ccc([N+](=O)[O-])cc3)cc2cc1C#Cc1ccc([N+](=O)[O-])cc1` came in with a photoluminescence quantum yield (in C1CCOC1) of 0.009, a photoluminescence quantum yield (in ClC(Cl)Cl) of 0.053 and a photoluminescence quantum yield (in ClCCl) of 0.019.

`F[B-]1(F)n2c(c3cccc4cccc2c43)=Nc2sc3ccccc3[n+]21`: the photoluminescence quantum yield runs as follows: (in C1CCOC1) 0.89; (in CC#N) 0.97; (in CCCCCC) 0.87; (in Cc1ccccc1) 0.76; (in ClCCl) 0.85.

As for `COc1cccc2c1oc(=O)c1c(=O)oc3cc(O)ccc3c12`, where the note is “in ClCCl”, the photoluminescence quantum yield came out at 0.004.

Turning to `CCCCCCCCOc1ccc(-c2c3c4n(c(-c5ccc(OCCCCCCCC)cc5)c3c3n2[B-](F)(F)[n+]2ccccc2N=3)[B-](F)(F)[n+]2ccccc2N=4)cc1`, the photoluminescence quantum yield (in ClC(Cl)Cl) came to 0.89.

`C(#Cc1nccnc1C#Cc1ccccc1)c1ccccc1` came in with a photoluminescence quantum yield (in CC#N) of 0.07.

In turn, `CCCCC(CC)COc1cc(OCC(CC)CCCC)c2c#cc3ccc4oc5ccc(c#cc6cc(c#cc7ccc8oc9ccc(c#cc1c2)cc9c8c7)c(C(CCCC)OCCC)cc6C(CCCC)OCCC)cc5c4c3` (stereo unspecified) had a photoluminescence quantum yield (in ClCCl) of 0.57.

As to `Cc1cscc1-c1cc2c3cc(-c4cscc4C)c4nc(C(F)(F)C(F)(F)C(F)(F)F)nc5c(-c6cscc6C)cc(c6cc(-c7cscc7C)c7nc(C(F)(F)C(F)(F)C(F)(F)F)nc1c7c26)c3c45`, under “in C1CCOC1”, the photoluminescence quantum yield stood at 0.33.

Regarding `CN(CC(O)c1cccc(O)c1)c1ccc([N+](=O)[O-])c(C2CC(c3cccc4ccccc34)=NN2c2ccccc2)c1` (stereo unspecified), the photoluminescence quantum yield runs as follows: (in C1CCCCC1) 0.16; (in C1CCOC1) 0.27; (in C1COCCO1) 0.5; (in CC#N) 0.25; (in CC(C)O) 0.17; (in CCOC(C)=O) 0.25. Also, the photoluminescence quantum yield was 0.23 (in CCOCC); 0.19 (in CO); 0.18 (in Cc1ccccc1); 0.22 (in ClC(Cl)Cl); 0.16 (in O).

For `O=C1c2ccccc2-c2nc3ccccc3n21`, for the setting “in ClCCl”, the photoluminescence quantum yield amounted to 0.04.

In the case of `N#Cc1nn(-c2ccc(F)cc2)nc1N1CCCC1`, the photoluminescence quantum yield (in CC#N) came out at 0.683.

Under “in Cc1ccccc1”, `CC1(C)c2cccc(-c3nc(-c4ccccc4)nc(-c4ccccc4)n3)c2Oc2c(N3c4ccccc4Sc4ccccc43)cccc21` registered a photoluminescence quantum yield of 0.077.

Consider `CCCCCCC1(CCCCCC)c2cc(-c3nc(-c4ccc5c(c4)C(CCCCCC)(CCCCCC)c4cc(-n6c7ccc(C(C)(C)C)cc7c7cc(C(C)(C)C)ccc76)ccc4-5)nc(-c4ccc5c(c4)C(CCCCCC)(CCCCCC)c4cc(-n6c7ccc(C(C)(C)C)cc7c7cc(C(C)(C)C)ccc76)ccc4-5)n3)ccc2-c2ccc(-n3c4ccc(C(C)(C)C)cc4c4cc(C(C)(C)C)ccc43)cc21`, for which the photoluminescence quantum yield runs as follows: (in C1CCOC1) 0.56; (in CCCCCC) 1; (in Cc1ccccc1) 0.99; (in ClCCl) 0.56.

The molecule `CCN(CC)c1ccc2n1[B-](F)(F)[N+]1=CC(/C=C/C(=O)OC(C)(C)C)=CC1=C2c1c(C)cc(C)cc1C` registered a photoluminescence quantum yield (in ClCCl) of 0.26.

As for `CC1=CC(/C=C/c2ccc(OCCCN=[N+]=[N-])cc2)=[N+]2C1=C(c1ccc(N(C)C)cc1)c1c(C)cc(C)n1[B-]2(F)F`, the photoluminescence quantum yield (in CO) was found to be 0.59.

`CCCCn1c(-c2ccc(-c3nnc(-c4ccccc4)o3)cc2)nc(-c2ccccc2)c1-c1ccccc1` displayed a photoluminescence quantum yield (in ClCCl) of 0.21.
